The values below come from patent US8501734B2, “Medical intervention in haematological cancers” (Oncotyrol-Center for Personalized Cancer Medicine GmbH …, priority 2008, dated 2013).

One assay has as its system TLR7 pathway. The assay is described as follows: TLR pathway activation: IRAK1 and IκB degradation by Western blot in OPM2 cells. As to conditions: OPM2 cells, 10, 20 or 40 μg/ml over night. The assay is classed as cell-based. Here is the method:
(§1) Cells were lysed in lysis-IP-Buffer supplemented with protease inhibitors and sodium orthovanadate. 10 μg of lysate were separated by SDS-PAGE (10% polyacrylamide) and transferred to methanol activated Hypond-P PVDF-membranes (Amersham, Freiburg, Germany) by semi-dry blotting. Membranes were blocked in a 3% bovine serum albumin solution or 5% non fat dry milk solution in phosphate buffered saline (PBS) with 0.1% Tween 20 (PBT). Primary antibodies were applied in blocking solution for 1 h at room temperature or over night at 4° C. Membranes were washed in PBT and incubated with corresponding secondary antibodies in 5% non fat dry milk in PBT for 1 h at room temperature. Cells were washed with PBT, incubated with ECL solution and exposed in a Fluorchem 5500 (Biozym, Oldendorf, Germany).
(§2) OPM2 cells were suspended in full medium and cultured in 24-well plates at a cell density of 500.000 cells/ml and well. Cells were left untreated (control) or treated over night with different concentrations of Imiquimod® (10, 20 or 40 μg/ml).
(§3) OPM2 cells were cultured in 24-well plates as described above. Imiquimod® (40 μg/ml) was added to cells (except controls) for different time periods (2, 4, 6 and 8 h) and the extent of PARP1 cleavage, IRAK1, IkB-α and IkB-β degradation were determined by Western blot. α-Tubulin was used as a loading control.
A general note: A western blot detects proteins with antibodies after separation by electrophoresis.

In assay [1] the test system is MDA468, CHO, ONK2, MCF7, HeLa, Raji, Daudi, Ramos, C7H2 and Jurkat; adherent cell lines. Kind of assay: Annexin V/PI apoptosis assay, non-MM and adherent cell lines. The assay is classed as cell-based. Here is the method: (§4) After treatment adherent cells were trypsinized (as described before), and resuspended in corresponding full medium. Suspension cells or trypsinized adherent cells, supernatant and washing solution (1×PBS from washing before trypsinization) were pooled and then spun down (300 g for 3 min) washed in 2 ml and resuspended in 1000 of annexin V binding buffer and mixed with 2 μg/ml annexin V-Allophycocyanin (APC) (BD-Pharmingen, San Diego, Calif., USA) and 50 ng/ml of propidium iodide (PI; Sigma Aldrich). At least 10.000 cells were measured per sample using a Becton Dickinson FACSCalibur flow Cytometer (San Jose, Calif., USA). Percentage of Annexin V negative and PI negative cells were depicted in the figures. […] Briefly, BMMCs were stained with a mixture of annexin V/FITC (Alexis Coorp., Laeufelfingen, Switzerland), propidium iodide (Sigma), anti-CD38-PE and anti-CD45-PC5 for 15 min at room temperature and immediately analyzed by flow cytometry. The percentages of viable cells (i.e. cells negative for annexin V/FITC and PI) within the MM (CD38^posCD45^low/absent) and non-MM fraction (CD38^neg/CD45^pos) were determined by flow cytometry.
(§5) Adherent cells were grown in 24-well plates to confluence and treated with 40 μg/ml Imiquimod® for 24 h. Cells were then trypsinized, suspended in full medium, stained for AnnexinV/PI and apoptosis was measured as described before. […]

A further assay deals with melanoma cells. Conditions: 50 μg/ml, 24 h; cited from earlier work.
Another assay has as its system OPM2 cells. The assay is described as follows: PARP cleavage assay (Western blot), OPM2 cells. The assay is classed as cell-based. As to conditions: 40 μg/ml. The procedure:
as §1, §2, §3

The test system of another assay is NCI cells. The assay is described as follows: Annexin V/PI apoptosis assay, NCI cells. The assay is classed as cell-based. Conditions: 40 μg/ml, 24 h. The procedure: as §4, §5
For assay [2], the system named is multiple myeloma cell lines. The assay is described as follows: Annexin V/PI apoptosis assay, multiple myeloma cell line panel. The assay is classed as cell-based. Conditions: 24 h. Here is the method: (§6) After treatment adherent cells were trypsinized (as described before), and resuspended in corresponding full medium. Suspension cells or trypsinized adherent cells, supernatant and washing solution (1×PBS from washing before trypsinization) were pooled and then spun down (300 g for 3 min) washed in 2 ml and resuspended in 1000 of annexin V binding buffer and mixed with 2 μg/ml annexin V-Allophycocyanin (APC) (BD-Pharmingen, San Diego, Calif., USA) and 50 ng/ml of propidium iodide (PI; Sigma Aldrich). At least 10.000 cells were measured per sample using a Becton Dickinson FACSCalibur flow Cytometer (San Jose, Calif., USA). Percentage of Annexin V negative and PI negative cells were depicted in the figures. For the analysis of the pro-apoptotic activity of Imiquimod® in primary MM cells and non-malignant BMMCs, 5×10^5 cells BMMCs cells were treated with or without 40 μg/ml Imiquimod® for the indicated time periods. Cells were then harvested and washed twice with PBS. Detection of apoptotic cells was performed using the annexin V/PI assay according to manufacturers' instruction. Briefly, BMMCs were stained with a mixture of annexin V/FITC (Alexis Coorp., Laeufelfingen, Switzerland), propidium iodide (Sigma), anti-CD38-PE and anti-CD45-PC5 for 15 min at room temperature and immediately analyzed by flow cytometry. The percentages of viable cells (i.e. cells negative for annexin V/FITC and PI) within the MM (CD38^posCD45^low/absent) and non-MM fraction (CD38^neg/CD45^pos) were determined by flow cytometry.
(§7) Adherent cells were grown in 24-well plates to confluence and treated with 40 μg/ml Imiquimod® for 24 h. Cells were then trypsinized, suspended in full medium, stained for AnnexinV/PI and apoptosis was measured as described before. Suspension cells (250.000) were treated with 40 μg/ml Imiquimod® for 24 h, stained for Annexin/PI and apoptosis was measured as described above (Annexin V/Propidium Iodide apoptosis Assay).

Assay [3] has as its system peripheral blood mononuclear cells (PBMCs). Kind of assay: Annexin V/PI apoptosis assay, PBMCs from healthy donors. Conditions: 40 μg/ml, 24 h. The assay is classed as cell-based, human. Here is the method: PBMCs were prepared using separation via Ficoll density gradient centrifugation (Biochrom AG, Berlin, Germany) according to the protocol of the manufacturer.
as §6, §7

Assay [4] concerns non-tumor cells (CD38negCD45high). The assay is described as follows: Annexin V/PI apoptosis assay, non-tumor fraction of patient BMMCs. The assay is classed as cell-based, human. As to conditions: CD45high non-tumor cells, 40 μg/ml, 8 h or 24 h. Here is the method:
For collection of primary multiple myeloma cells, bone marrow aspirates from iliac crests were collected during routine examinations after obtaining informed patient consent. Bone marrow mononuclear cells (BMMCs) were separated by density centrifugation. Fresh blood samples were diluted 1:1 with RPMI 1640 medium and layered over Biocoll separating solution (1.077 g/ml, Biochrom AG, Berlin; blood/RPMI1640/Biocoll; 1:1:1, v/v/v). Centrifugation was carried out for 20 min at 400 g. […] The percentage of multiple myeloma cells within the BMMCs was determined by flow cytometry. Briefly, 2×10^5 cells were stained for 15 min with fluorochrome-labelled antibodies to CD38 (phycoerythrin, PE) and CD45 (phycoerythrin-cyanin 5, PC5) (both from Beckman Coulter Inc., Fullerton, Calif., USA), washed with PBS and were immediately analyzed using the FC500 flow cytometer and the RXP1.0 software (Beckman Coulter). MM cells were detected by their high expression of CD38 and weak to absent expression of CD45.
After treatment adherent cells were trypsinized (as described before), and resuspended in corresponding full medium. […] At least 10.000 cells were measured per sample using a Becton Dickinson FACSCalibur flow Cytometer (San Jose, Calif., USA). […]

The test system of assay [5] is Raji, Daudi, Ramos, Jurkat, C7H2 cell lines. Kind of assay: Annexin V/PI apoptosis assay, non-multiple myeloma suspension cell lines. The assay is classed as cell-based. Conditions: 24 h. Here is the method:
as §6, §7

The next assay concerns U266 cells. Kind of assay: Annexin V/PI apoptosis assay (FACS), U266 cells. As to apoptosis induction: key: 0 for no; + for low; ++: + indicates the range of apoptosis induction; +++: + indicates the range of apoptosis induction; ++++ for very strong apoptosis induction. As to conditions: for apoptosis induction: Imi 20 μg/ml alone. The assay is classed as cell-based. Also on record: apoptosis induction: unit not given here.

As for `CC(C)Cn1cnc2c(N)nc3ccccc3c21` [Imiquimod, 1-(2-methylpropyl)-1H-imidazo[4,5-c]quinolin-4-amine], the IRAK1 degradation result in the assay on TLR7 pathway was “degraded in a concentration-dependent manner”. Moreover, the IκB-α degradation result in the assay with TLR7 pathway is listed as “degraded in a concentration dependent manner”. Moreover, in assay [1] (MDA468, CHO, ONK2, MCF7, HeLa, Raji, Daudi, Ramos, C7H2 and Jurkat), the “sensitivity to Imiquimod” value was “no sensitivity”. In addition, the “sensitivity (apoptosis)” value in [1] (set of adherent cell lines, 40 μg/ml, 24 h) is “no significant or only minimal sensitivity”; in assay [2] (OPM2, U266, LP1, NCI, 40 μg/ml), “sensitive”; in assay [3] (CD4+ and CD8+ cells from 12 healthy donors) it was “nearly no sensitivity”; in assay [3] (CD19+ cells from 12 healthy donors) it was “only mildly affected”; in assay [5] (Raji and Jurkat, 40 μg/ml), “if at all only low sensitivity”. Further, the apoptotic cells in the assay with melanoma cells is given as 15.8%; in the assay on NCI cells, 90%. The results for the PARP cleavage result in the assay with OPM2 cells (2 hours after application) and in the assay with OPM2 cells (after 6 hours) were “some PARP cleavage” and “nearly complete PARP cleavage”, respectively. In the assay on OPM2 cells (6 h to 8 h after application), the “apoptosis induction in PARP cleavage assay” value stood at 100%. Further, in the assay with OPM2 cells (multiple myeloma cells), the “onset of apoptosis induction” value amounted to 2 h. Besides, the “apoptosis induction, single agent” value in assay [2] (OPM2, LP-1, RPMI, U266, Imiquimod 20 μg/ml or Akti1/2 5 or 10 μM alone) is “some apoptosis”. Further, the apoptosis induction entry is “induction of apoptosis” in [4]; “apoptosis to some minor degree” in assay [5] (Raji, Daudi, Ramos, Jurkat, C7H2, 20 μg/ml); “+” with U266 cells (24 h); “+ and ++” with U266 cells (48 h, listed as Imi). For the same compound, in the assay on U266 cells (40 μg/ml, 24 h), the “cells dying upon treatment” value was “about 30%”.
